This note sets out measurements from patent US10214491B2, “Activators and therapeutic applications thereof” (THE JOHNS HOPKINS UNIVERSITY, priority 2007, dated 2019).

This test concerns p53DsRed reporter in PG3/9 melanoma cells (A375 clone). Briefly: p53DsRed reporter activation assay (in vitro p53 activity assay). Format: cell-based. The note with it: for EC50: Homo sapiens, A-375, PG3/9 melanoma cells, 24 hours, read-out: effective concentration (EC50), p53DsRed reporter activation. The protocol: The ability of the compounds to activate p53 was analyzed using a cell-based assay. To establish the assay, a stable cell transfectant expressing a p53-responsive reporter was generated. A375 melanoma cell line (ATCC CRL-1619) was transfected with a vector containing the p53 consensus element 13x repeat (13XRE) (Kern et al., 1991) cloned to a DsRed Express reporter vector (Clontech) to yield the vector “PG13DsRed”, hereafter termed as “p53DsRed”. […] The cell clone PG3/9 was used in the screen.
The assay was carried out in a 96-well format and all plate handlings were done using liquid handling robots (Thermo CRS, Thermo Electron Corporation; Biomek FX, Beckman Coulter and Hamilton STAR, Hamilton Microlab). Cells were plated at 10,000 cells/100 μL/well onto 96-well ViewPlates (Packard) and incubated overnight at +37° C. and 5% CO2. Small molecule compound chemical libraries were purchased and diluted to dimethylsulfoxide (DMSO) at 10 mM concentration. The compounds were pin-transferred to plain media at approximately 3 μM concentration either as single (one compound/one well) or pools of compounds (two compounds/one well). The growth media was removed and replaced with media with the test compounds followed by incubation of the cells for 24 h at +37° C. and 5% CO2. […] Following the incubation, the cells were washed with phosphate buffered saline and fixed with paraformaldehyde (PFA, 4%, 25 min, RT) and cell nuclei were stained with Hoechst 33342 (Molecular Probes, 4 μg/mL, 2 min, RT).
The fluorescence signals of Hoechst 33342 and DsRed reporter expression in the fixed cells were analyzed using ArrayScan 4.5 high-content screening platform (Cellomics) including an inverted microscope (Zeiss 200M) with 10× objective (Zeiss), Omega XF93 filter (Omega), ORCA-AG CCD camera (Hamamatsu). The algorithm used for image acquisition and analysis was Target Activation Bioapplication (Cellomics), which was set to analyse the total number of cells and the percentage of p53 reporter positive cells termed as “responders”. For each well, four images on both fluorescence channels were acquired corresponding to approximately 1700 cells in mock-treated wells. The mean number of responders was calculated for each well, and compounds causing reporter activation for more than two times the mean number of responders in the mock treated cells in each plate were regarded as hits.
In the secondary screen the hits were collected and tested over 100 nM to 10 μM concentration range. The compound treatment time, cell fixations and stainings as well as fluorescence signal detection was as described above. Compounds providing consistent p53DsRed reporter activation at low μM concentration range were selected for further testing. The effective concentration 50 (EC50) was calculated using the following formula: […]

`CN(C)CCNC(=O)c1cccn2c(=O)c3cc4ccccc4cc3nc12` [Compound 21]: the EC50 was 300 nM.

`Cc1cc(C)c2nc3nc(C)cc(C)c3c(N)c2c1` [Compound 22, 2,4,7,9-tetramethylbenzo[b]-1,8-naphthyridin-5-amine]: the EC50 came out at 2600 nM. For the same molecule, the “fraction of p53-reporter activated cells at high concentrations” value (high concentrations, apparently due to excessive cell death) was “decrease in the fraction of p53-reporter activated cells”.
